Article PMC6941357, “An in vitro toolbox to accelerate anti-malarial drug discovery and development” (Malaria Journal, 2020)
Converted amounts (≈) assume the structure as drawn. Read-outs that look alike come from different tables or passages of the source.

Assays:
[1] = Ionization constants by potentiometric titration; format: physicochemical; conditions: aqueous solution (DMSO stock diluted 1:10 with water), mean ± SD, n = 3 titrations, read-out: Measured pKa
Summary of the method: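 Glass electrode calibrated at pH 2, 4, 7 and 10; reagents standardized against potassium hydrogen phthalate, titrants protected from CO2. Samples diluted 1:10 with water in the titration vessel, typical final compound concentration 0.5 mM.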

[2] = Solubility limited absorbable dose (SLAD) calculation with predicted human jejunal Peff; conditions: for An (absorption number): Peff × tres/R, minimum 1; for SLAD: Ssi × V (500 mL) × Mp; for Permeability classification: based on ref 80 and control compounds; for Predicted human Peff: from Caco-2 Papp via calibration plot
Description: Predicted Peff values were obtained from a calibration plot of literature Peff values vs measured Caco-2 Papp using either buffer or plasma as the transport medium (see Results section).

[3] = Binding to human liver microsomes via ultracentrifugation; format: in vitro ADME; conditions: human, liver microsomes, pH 7.4, 0.4 mg/mL protein, read-out: Fraction unbound, HLM
Summary of the method: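 Unbound fraction by ultracentrifugation: Cunbound measured in protein-free supernate, Ctotal from spiked tubes held at 37 °C, sampled at start and end to check degradation. Matrix was 0.4 mg/mL human liver microsomal protein, 0.1 M phosphate pH 7.4; matrix-matched analysis against one calibration curve.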

in vitro = conditions: human
Summary of the method: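 Transport run in both directions with either HBSS/20 mM HEPES pH 7.4 or human plasma in apical and basolateral chambers, 0.1% v/v DMSO in donor. Donor and acceptor samples quantified by LC–MS; Papp and mass balance calculated, with plasma Papp corrected for donor fraction unbound. Efflux ratio = mean B–A/A–B Papp.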

CYP2D6 = CYP2D6 (Homo sapiens, UniProt P10635); assay: Cytochrome P450 inhibition in human liver microsomes
Summary of the method: (§1)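 Metabolites quantified by LC–MS against calibration standards in quenched microsomal matrix, with diazepam as internal standard; substrate Km determined under the same incubation conditions.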

CYP1A2 = target: T1, CYP1A2 (Homo sapiens, UniProt P05177); assay: as above; conditions: for CYP1A2 % inhibition at max conc: microsomes
T1 sequence (P05177 1-516): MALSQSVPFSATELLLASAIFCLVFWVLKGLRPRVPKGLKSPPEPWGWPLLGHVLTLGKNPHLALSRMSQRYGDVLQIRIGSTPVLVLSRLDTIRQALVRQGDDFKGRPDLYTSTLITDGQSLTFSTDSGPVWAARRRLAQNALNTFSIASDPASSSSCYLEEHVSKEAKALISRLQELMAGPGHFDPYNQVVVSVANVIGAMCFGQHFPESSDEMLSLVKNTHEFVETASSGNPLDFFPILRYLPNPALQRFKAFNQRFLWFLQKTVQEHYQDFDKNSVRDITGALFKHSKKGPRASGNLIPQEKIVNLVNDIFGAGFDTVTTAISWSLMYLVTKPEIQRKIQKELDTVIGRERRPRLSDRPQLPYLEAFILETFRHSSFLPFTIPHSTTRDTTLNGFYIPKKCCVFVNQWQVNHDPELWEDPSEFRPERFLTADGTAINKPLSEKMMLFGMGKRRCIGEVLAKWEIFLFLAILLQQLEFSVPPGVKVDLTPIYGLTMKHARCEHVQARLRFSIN
Summary of the method: as §1

human plasma = conditions: methods UF, ED, EP or not described per compound, ref [6]–[22] of Additional file 1; cited from earlier work

CYP2D6, sequence (P10635 whole entry): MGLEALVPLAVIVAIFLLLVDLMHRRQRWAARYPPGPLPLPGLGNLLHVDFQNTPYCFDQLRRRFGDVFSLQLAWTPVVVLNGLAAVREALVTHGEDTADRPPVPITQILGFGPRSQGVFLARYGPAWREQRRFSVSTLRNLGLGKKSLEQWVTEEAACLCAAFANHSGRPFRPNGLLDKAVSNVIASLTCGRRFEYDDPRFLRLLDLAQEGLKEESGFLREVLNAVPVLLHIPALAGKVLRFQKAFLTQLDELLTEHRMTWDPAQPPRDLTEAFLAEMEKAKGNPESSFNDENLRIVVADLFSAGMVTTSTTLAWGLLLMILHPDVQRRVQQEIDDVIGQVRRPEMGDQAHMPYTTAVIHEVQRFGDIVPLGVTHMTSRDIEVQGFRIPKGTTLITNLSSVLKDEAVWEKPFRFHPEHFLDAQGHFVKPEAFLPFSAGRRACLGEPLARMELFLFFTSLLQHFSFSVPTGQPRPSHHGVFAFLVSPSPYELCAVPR

| Compound | pKa ([1]; basic pKa (B)) | An (absorption number) [2] | SLAD [2] | Permeability classification [2] | Predicted human Peff [2] | fraction unbound at […] [3] | Papp A→B (in vitro; Caco-2, pH 7.4) | Papp B→A (in vitro; Caco-2, pH 7.4) | IC50 (CYP2D6) | inhibition at 20 µM (CYP2D6; human, microsomes, pH 7.4) | IC50 (CYP1A2) | CYP1A2 % inhibition at max conc (CYP1A2) | Literature fu (human plasma) | pKa ([1]; acidic pKa (A)) | solubility ([2]; FaSSIF) | Papp A→B (in vitro; Caco-2, pH 7.4, A–B Papp, matrix: pH 7.4 buffer) | CYP2D6 % inhibition at max conc (CYP2D6; microsomes) |
| --- | --- | --- | --- | --- | --- | --- | --- | --- | --- | --- | --- | --- | --- | --- | --- | --- | --- |
| CCc1nc(N)nc(N)c1-c1ccc(Cl)cc1 [Pyrimethamine] | 6.9 ± 0.1 | 5.9 | 326 mg | High (> 85% absorption (high)) | 4.9 10^−4 cm/s | 0.54 ± 0.097 | 60 ± 5.6 ×10⁻⁶ cm/s | 59 ± 2.9 ×10⁻⁶ cm/s | > 20 µM | 36% | > 20 µM | nmi | 0.088 | – | – | – | – |
| COc1ncnc(NS(=O)(=O)c2ccc(N)cc2)c1OC [Sulfadoxine] | – | 2.2 | 959 mg | High (> 85% absorption (high)) | 1.9 10^−4 cm/s | 0.93 ± 0.086 | – | 23 ± 2.8 ×10⁻⁶ cm/s | > 20 µM | – | > 20 µM | nmi | 0.05-0.1 | 6.2 ± 0.01 | 858 µg/mL (≈ 2760 µM) | 15 ± 2.5 ×10⁻⁶ cm/s | nmi |
